Test results published in DBAASP.
≈ marks a conversion by molar mass, not a printed value. Where “and” joins values, the source holds several entries; their conditions need not be identical. Identical values can stand only once.

Legend:
Assay in all cases: ≥ marks a high value that may be exact or a test limit, other limits are often not marked, values filed in µg/mL are converted to µM
[1] = tested on: Escherichia coli JW0013
[2] = tested on: Bacillus subtilis
[3] = tested on: Candida albicans ATCC 2002
[4] = tested on: Escherichia coli ATCC 25922
[5] = tested on: Staphylococcus aureus ATCC 2592
[6] = tested on: Enterococcus faecalis ATCC 29212
[7] = tested on: Escherichia coli UB1005
[8] = tested on: Salmonella enterica subsp. enterica serovar Typhimurium C77-31
[9] = tested on: Staphylococcus aureus ATCC 29213
[10] = tested on: Staphylococcus epidermidis ATCC 12228
[11] = tested on: Pseudomonas aeruginosa PAO1
[12] = tested on: Staphylococcus aureus ATCC 25923
[13] = tested on: Pseudomonas aeruginosa ATCC 27853
[14] = tested on: Staphylococcus aureus ATCC 33591

CC[C@H](C)[C@H](NC(=O)[C@H](CCCN=C(N)N)NC(=O)[C@H](CCCN=C(N)N)NC(=O)[C@@H]1CCCN1C(=O)[C@@H]1CCCN1C(=O)[C@H](CCCN=C(N)N)NC(=O)[C@H](CCCN=C(N)N)NC(=O)[C@H](CCCN=C(N)N)NC(=O)[C@@H]1CCCN1C(=O)[C@H](CCCN=C(N)N)NC(=O)[C@H](Cc1ccc(O)cc1)NC(=O)[C@@H]1CCCN1C(=O)[C@H](CCCCN)NC(=O)[C@H](CCCCN)NC(=O)[C@H](CC(=O)O)NC(=O)[C@@H](N)C(C)C)C(=O)N[C@@H](Cc1ccc(O)cc1)C(=O)N[C@@H](CC(N)=O)C(=O)N[C@@H](CCCN=C(N)N)C(N)=O [VDKKPYRPRRRPPRRIYNR]
MIC [1]: 0.634 µM (≈ 1.6 µg/mL)

CC[C@H](C)[C@H](NC(=O)[C@H](CCCN=C(N)N)NC(=O)[C@H](CCCN=C(N)N)NC(=O)[C@@H]1CCCN1C(=O)[C@@H]1CCCN1C(=O)[C@H](CCCN=C(N)N)NC(=O)[C@@H]1CCCN1C(=O)[C@H](CCCN=C(N)N)NC(=O)[C@@H]1CCCN1C(=O)[C@H](CC(C)C)NC(=O)[C@H](Cc1ccc(O)cc1)NC(=O)[C@@H]1CCCN1C(=O)[C@H](CC(=O)O)NC(=O)[C@H](CCCCN)NC(=O)[C@H](CC(=O)O)NC(=O)[C@@H](N)C(C)C)C(=O)N[C@@H](Cc1ccc(O)cc1)C(=O)N[C@@H](CC(N)=O)C(=O)N[C@@H](CCCN=C(N)N)C(N)=O [VDKDPYLPRPRPPRRIYNR]
MIC [1]: 1.99 µM (≈ 4.8 µg/mL)

CC[C@H](C)[C@@H]1NC(=O)[C@H](CO)NC(=O)[C@H](CCCCN)NC(=O)[C@H]([C@@H](C)O)NC(=O)[C@H](Cc2c[nH]c3ccccc23)NC(=O)[C@@H](NC(=O)CNC(=O)[C@H](CCCCN)NC(=O)[C@@H](N)CC(C)C)CSSC[C@@H](C(=O)N[C@@H](Cc2ccccc2)C(=O)O)NC(=O)[C@@H]2CCCN2C(=O)[C@H](CCCCN)NC(=O)[C@@H]2CCCN2C(=O)[C@@H]2CCCN2C1=O [LKGCWTKSIPPKPCF]
MIC [2]: 1.37 µM (≈ 2.34 µg/mL) | MIC [3]: 2.75 µM (≈ 4.68 µg/mL) | MIC [4]: 1.37 µM (≈ 2.34 µg/mL) | MIC [5]: 1.03 µM (≈ 1.76 µg/mL)

CC[C@H](C)[C@H](NC(=O)[C@H](CCCCN)NC(=O)[C@H](CCCCN)NC(=O)[C@H](CC(C)C)NC(=O)[C@H](CCCN=C(N)N)NC(=O)[C@@H](NC(=O)[C@H](CCCN=C(N)N)NC(=O)[C@@H](NC(=O)[C@H](CCCCN)NC(=O)[C@@H](NC(=O)[C@H](CCCN=C(N)N)NC(=O)[C@H](CC(C)C)NC(=O)[C@H](CCCN=C(N)N)NC(=O)[C@H](CCCN=C(N)N)NC(=O)[C@H](Cc1ccccc1)NC(=O)[C@@H](N)CCCN=C(N)N)[C@@H](C)CC)[C@@H](C)O)[C@@H](C)CC)C(N)=O [RFRRLRIKTRIRLKKI]
MIC [6]: 16 µM (≈ 34.4 µg/mL) | MIC [4]: 8 µM and > 4 µM | MIC [7]: 16 µM (≈ 34.4 µg/mL) | MIC [8]: 16 µM (≈ 34.4 µg/mL) | MIC [9]: 64 µM and > 32 µM | MIC [10]: 16 µM (≈ 34.4 µg/mL)

CC[C@H](C)[C@H](NC(=O)[C@H](CCCN=C(N)N)NC(=O)[C@H](CCCN=C(N)N)NC(=O)[C@@H]1CCCN1C(=O)[C@@H]1CCCN1C(=O)[C@H](CCCN=C(N)N)NC(=O)[C@@H]1CCCN1C(=O)[C@H](CCCN=C(N)N)NC(=O)[C@@H]1CCCN1C(=O)[C@H](CC(C)C)NC(=O)[C@H](CCCN=C(N)N)NC(=O)[C@@H]1CCCN1C(=O)[C@@H]1CCCN1C(=O)[C@H](CCCCN)NC(=O)[C@H](CC(=O)O)NC(=O)[C@@H](N)C(C)C)C(=O)N[C@@H](Cc1ccc(O)cc1)C(=O)N[C@@H](CC(N)=O)C(=O)N[C@@H](CCCN=C(N)N)C(N)=O [VDKPPRLPRPRPPRRIYNR]
MIC [1]: 1.38 µM (≈ 3.3 µg/mL)

CC[C@H](C)[C@H](NC(=O)[C@H](CCCCN)NC(=O)[C@H](Cc1c[nH]c2ccccc12)NC(=O)[C@H](CC(C)C)NC(=O)[C@H](CCCN=C(N)N)NC(=O)[C@H](CCCCN)NC(=O)[C@H](CCCN=C(N)N)NC(=O)[C@@H](NC(=O)[C@H](CCCCN)NC(=O)[C@H](Cc1c[nH]c2ccccc12)NC(=O)[C@H](CCCN=C(N)N)NC(=O)[C@H](CC(C)C)NC(=O)[C@H](CCCN=C(N)N)NC(=O)[C@H](CCCN=C(N)N)NC(=O)[C@H](Cc1ccccc1)NC(=O)[C@@H](N)CCCN=C(N)N)[C@@H](C)O)C(N)=O [RFRRLRWKTRKRLWKI]
MIC [6]: 8 µM (≈ 18.4 µg/mL) | MIC [7]: 16 µM (≈ 36.8 µg/mL) | MIC [8]: 16 µM (≈ 36.8 µg/mL) | MIC [10]: 32 µM (≈ 73.6 µg/mL)

CC[C@H](C)[C@H](NC(=O)[C@H](CCCN=C(N)N)NC(=O)[C@H](CCCN=C(N)N)NC(=O)[C@@H]1CCCN1C(=O)[C@@H]1CCCN1C(=O)[C@H](CCCN=C(N)N)NC(=O)[C@H](CCCN=C(N)N)NC(=O)[C@H](CCCN=C(N)N)NC(=O)[C@@H]1CCCN1C(=O)[C@H](CC(C)C)NC(=O)[C@H](Cc1ccc(O)cc1)NC(=O)[C@@H]1CCCN1C(=O)[C@@H]1CCCN1C(=O)[C@H](CCCCN)NC(=O)[C@H](CC(=O)O)NC(=O)[C@@H](N)C(C)C)C(=O)N[C@@H](Cc1ccc(O)cc1)C(=O)N[C@@H](CC(N)=O)C(=O)N[C@@H](CCCN=C(N)N)C(N)=O [VDKPPYLPRRRPPRRIYNR]
MIC [1]: 0.98 µM (≈ 2.4 µg/mL) | MIC [7]: 2.04 µM (≈ 5 µg/mL) | MIC [11]: 26.1 µM (≈ 64 µg/mL) | MIC [12]: 6.53 µM (≈ 16 µg/mL)

CC[C@H](C)[C@H](NC(=O)[C@H](CC(C)C)NC(=O)[C@H](CC(=O)O)NC(=O)[C@H](CCC(N)=O)NC(=O)[C@H](CCC(N)=O)NC(=O)[C@H](CC(C)C)NC(=O)[C@H](CCC(=O)O)NC(=O)[C@@H]1CCCN1C(=O)[C@@H](N)Cc1ccc(O)cc1)C(=O)N[C@@H](C)C(=O)N[C@@H](CCCN=C(N)N)C(=O)N[C@@H](CC(C)C)C(=O)N[C@@H](CC(C)C)C(=O)O [YPELQQDLIARLL]
MIC [2]: 1.97 µM (≈ 3.1 µg/mL) | MIC [3]: 15.9 µM (≈ 25 µg/mL) | MIC [4]: 31.8 µM (≈ 50 µg/mL) | MIC [5]: 4.01 µM (≈ 6.3 µg/mL)

CC[C@H](C)[C@H](NC(=O)CNC(=O)[C@H](CO)NC(=O)[C@H](CCCN=C(N)N)NC(=O)[C@@H](N)Cc1ccccc1)C(=O)N[C@@H](CC(C)C)C(=O)N[C@@H](CCCCN)C(=O)N[C@@H](CC(C)C)C(=O)N[C@@H](C)C(=O)N[C@@H](CO)C(=O)N[C@@H](CCCCN)C(=O)N[C@H](C(=O)N1CCC[C@H]1C(=O)N[C@@H](CO)C(=O)N[C@H](C(=O)N[C@@H](CC(C)C)C(=O)N[C@H]1CSSC[C@@H](C(=O)O)NC(=O)[C@H](CC(N)=O)NC(=O)[C@H](CCCCN)NC(=O)[C@H](CC(C)C)NC(=O)[C@H](C(C)C)NC(=O)[C@H](C)NC1=O)C(C)C)[C@@H](C)CC [FRSGILKLASKIPSVLCAVLKNC]
MIC [2]: 20.3 µM (≈ 50 µg/mL) | MIC [3]: 10.2 µM (≈ 25 µg/mL) | MIC [4]: 20.3 µM (≈ 50 µg/mL) | MIC [5]: 5.08 µM (≈ 12.5 µg/mL)

NC(=O)[C@H](CCCN=C(N)N)NC(=O)[C@H](CCCN=C(N)N)NC(=O)[C@@H]1CCCN1C(=O)[C@H](CCCN=C(N)N)NC(=O)[C@H](CCCN=C(N)N)NC(=O)[C@H](CCCN=C(N)N)NC(=O)[C@H](Cc1c[nH]c2ccccc12)NC(=O)[C@H](CCCN=C(N)N)NC(=O)[C@H](CCCN=C(N)N)NC(=O)[C@H](CCCN=C(N)N)NC(=O)[C@H](CCCN=C(N)N)NC(=O)[C@H](CCCN=C(N)N)NC(=O)[C@H](Cc1c[nH]c2ccccc12)NC(=O)[C@H](CCCN=C(N)N)NC(=O)[C@H](CCCN=C(N)N)NC(=O)[C@H](Cc1ccc(O)cc1)NC(=O)[C@H](CCCN=C(N)N)NC(=O)[C@H](CCCN=C(N)N)NC(=O)[C@H](CCCN=C(N)N)NC(=O)[C@@H](N)Cc1c[nH]c2ccccc12 [WRRRYRRWRRRRRWRRRPRR]
MIC [4]: 3.13 µM (≈ 9.95 µg/mL) | MIC [13]: 3.13 µM (≈ 9.95 µg/mL) | MIC [12]: 1.56 µM (≈ 4.96 µg/mL) | MIC [14]: 1.56 µM (≈ 4.96 µg/mL)

CC[C@H](C)[C@H](NC(=O)[C@H](CCC(N)=O)NC(=O)[C@H](CC(C)C)NC(=O)[C@H](CCC(N)=O)NC(=O)[C@@H](NC(=O)[C@H](CCCN=C(N)N)NC(=O)[C@H](Cc1ccccc1)NC(=O)[C@H](Cc1c[nH]c2ccccc12)NC(=O)[C@@H](N)CCCN=C(N)N)[C@@H](C)CC)C(=O)N[C@@H](CCCN=C(N)N)C(=O)N[C@@H](CCCN=C(N)N)C(=O)N[C@@H](Cc1c[nH]c2ccccc12)C(=O)N[C@@H](CCCN=C(N)N)C(=O)N[C@@H](CC(N)=O)C(=O)N[C@@H](CCCN=C(N)N)C(=O)N[C@@H](CCCN=C(N)N)C(N)=O [RWFRIQLQIRRWRNRR]
MIC [4]: 16 µM (≈ 37.4 µg/mL) | MIC [14]: 16 µM (≈ 37.4 µg/mL)

CC[C@H](C)[C@H](NC(=O)[C@H](CCCN=C(N)N)NC(=O)[C@H](CCCN=C(N)N)NC(=O)[C@@H]1CCCN1C(=O)[C@@H]1CCCN1C(=O)[C@H](CCCN=C(N)N)NC(=O)[C@@H]1CCCN1C(=O)[C@H](CCCN=C(N)N)NC(=O)[C@@H]1CCCN1C(=O)[C@H](CC(C)C)NC(=O)[C@H](CCCCN)NC(=O)[C@@H]1CCCN1C(=O)[C@@H]1CCCN1C(=O)[C@H](CCCCN)NC(=O)[C@H](CC(=O)O)NC(=O)[C@@H](N)C(C)C)C(=O)N[C@@H](Cc1ccc(O)cc1)C(=O)N[C@@H](CC(N)=O)C(=O)N[C@@H](CCCN=C(N)N)C(N)=O [VDKPPKLPRPRPPRRIYNR]
MIC [1]: 2.04 µM (≈ 4.8 µg/mL)

CC[C@H](C)[C@H](NC(=O)[C@H](CCCN=C(N)N)NC(=O)[C@H](CCCN=C(N)N)NC(=O)[C@@H]1CCCN1C(=O)[C@@H]1CCCN1C(=O)[C@H](CCCN=C(N)N)NC(=O)[C@@H]1CCCN1C(=O)[C@H](CCCN=C(N)N)NC(=O)[C@@H]1CCCN1C(=O)[C@H](CC(C)C)NC(=O)[C@H](CCCN=C(N)N)NC(=O)[C@H](Cc1cnc[nH]1)NC(=O)[C@H](CCCN=C(N)N)NC(=O)[C@H](CCCCN)NC(=O)[C@H](CC(=O)O)NC(=O)[C@@H](N)C(C)C)C(=O)N[C@@H](Cc1ccc(O)cc1)C(=O)N[C@@H](CC(N)=O)C(=O)N[C@@H](CCCN=C(N)N)C(N)=O [VDKRHRLPRPRPPRRIYNR]
MIC [1]: 0.524 µM (≈ 1.3 µg/mL)
